Measured values as given in patent publication EP2712863B1, “Novel inhibitors of bacterial biofilms and related methods” (Sequoia Sciences, Inc., priority 2012, dated 2014).
Converted amounts (≈) assume the structure as drawn. Where two headings read alike, the source gives them in different places.

What was measured:
E. coli = experiment: Biofilm growth assay (spreading biofilm on semi-solid agar); assay type: cell-based; settings: Escherichia coli
How it was run: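 Spreading (swarming) biofilm on semi-solid agar: E. coli on LB with 0.6% agar and 0.5% glucose; P. aeruginosa on M8 agar with 0.2% glucose, 100 µM CaCl2, 1 mM MgSO4, 0.5% Casamino acids. Compound in medium; 5 µL overnight culture spotted centrally, 37°C overnight. Value: concentration (µg/ml) giving ≥85% reduction in spread area versus negative control.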

P. aeruginosa = experiment: as above; assay type: cell-based; settings: Pseudomonas aeruginosa
[1] = Table 3, concentration that reduces the area of the spreading biofilm by >= 85%, read-out: E. coli
[2] = Table 3, concentration that reduces the area of the spreading biofilm by >= 85%, read-out: P. aeruginosa

| Structure (SMILES) | IC85 (E. coli; [1]) [µg/mL] | IC85 (P. aeruginosa; [2]) [µg/mL] | further results |
| --- | --- | --- | --- |
| CN(C)c1ccc(C2=C3[C@@H]4CC(C)(C)CC[C@]4(C(=O)O)CC[C@@]3(C)[C@]3(C)CC[C@H]4C(C)(C)c5n[nH]c(N)c5C[C@]4(C)C3C2)cn1 (stereo partly drawn) [Compound 44, (4aS,6aS,6bR,8aR,13aR,15bS)-12-Amino-15-(6-(dimethylamino)pyridin-3-yl)-2,2,6a,6b,9,9,13a-heptamethyl-2,3,4,4a,5,6,6a,6b,7,8,8a,9,11,13,13a,13b,14,15b-octadecahydro-1H-chryseno[1,2-f]indazole-4a-carboxylic acid] | 2 (≈ 3.26 µM) | 0.5 (≈ 0.814 µM) | – |
| CC1(C)CC[C@]2(C(=O)O)CC[C@]3(C)C(=C(c4ccc(N5CCCC5)nc4)CC4[C@@]5(C)Cc6c(n[nH]c6N)C(C)(C)C5CC[C@]43C)C2C1 (stereo partly drawn) [Compound 45, (4aS,6aS,6bR,13aR)-12-Amino-2,2,6a,6b,9,9,13a-heptamethyl-15-(6-(pyrrolidin-1-yl)pyridin-3-yl)-2,3,4,4a,5,6,6a,6b,7,8,8a,9,11,13,13a,13b,14,15b-octadecahydro-1H-chryseno[1,2-f]indazole-4a-carboxylic acid] | 1 (≈ 1.56 µM) | 0.5 (≈ 0.781 µM) | – |
| CC1(C)CC[C@]2(C(=O)O)CC[C@]3(C)C(=C(c4cccc5cnccc45)CC4[C@@]5(C)Cc6c(n[nH]c6N)C(C)(C)C5CC[C@]43C)C2C1 (stereo partly drawn) [Compound 46, (4aS,6aS,6bR,13aR)-12-Amino-15-(isoquinolin-5-yl)-2,2,6a,6b,9,9,13a-heptamethyl-2,3,4,4a,5,6,6a,6b,7,8,8a,9,11,13,13a,13b,14,15b-octadecahydro-1H-chryseno[1,2-f]indazole-4a-carboxylic acid] | 1 (≈ 1.61 µM) | 0.5 (≈ 0.805 µM) | – |
| CC1(C)CC[C@]2(C(=O)O)CC[C@]3(C)C(=C(c4cccc5c4CCNC5)CC4[C@@]5(C)Cc6c(n[nH]c6N)C(C)(C)C5CC[C@]43C)C2C1 (stereo partly drawn) [Compound 47, (4aS,6aS,6bR,13aR)-12-Amino-2,2,6a,6b,9,9,13a-heptamethyl-15-(1,2,3,4-tetrahydroisoquinolin-5-yl)-2,3,4,4a,5,6,6a,6b,7,8,8a,9,11,13,13a,13b,14,15b-octadecahydro-1H-chryseno[1,2-f]indazole-4a-carboxylic acid] | 1 (≈ 1.6 µM) | 0.5 (≈ 0.8 µM) | – |
| CC1(C)CC[C@]2(C(=O)O)CC[C@]3(C)C(=C(c4cccc5[nH]ccc45)CC4[C@@]5(C)Cc6c(n[nH]c6N)C(C)(C)C5CC[C@]43C)C2C1 (stereo partly drawn) [Compound 48, (4aS,6aS,6bR,13aR)-12-Amino-15-(1H-indol-4-yl)-2,2,6a,6b,9,9,13a-heptamethyl-2,3,4,4a,5,6,6a,6b,7,8,8a,9,11,13,13a,13b,14,15b-octadecahydro-1H-chryseno[1,2-f]indazole-4a-carboxylic acid] | 1 (≈ 1.64 µM) | 0.5 (≈ 0.821 µM) | – |
| CC1(C)CC[C@]2(C(=O)O)CC[C@]3(C)C(=C(c4ccc5[nH]ccc5c4)CC4[C@@]5(C)Cc6c(n[nH]c6N)C(C)(C)C5CC[C@]43C)C2C1 (stereo partly drawn) [Compound 49, (4aS,6aS,6bR,13aR)-12-Amino-15-(1H-indol-5-yl)-2,2,6a,6b,9,9,13a-heptamethyl-2,3,4,4a,5,6,6a,6b,7,8,8a,9,11,13,13a,13b,14,15b-octadecahydro-1H-chryseno[1,2-f]indazole-4a-carboxylic acid] | > 1 | 0.5 (≈ 0.821 µM) | – |
| CC1(C)CC[C@]2(C(=O)O)CC[C@]3(C)C(=C(c4ccc(N5CCNCC5)cc4)CC4[C@@]5(C)Cc6c(n[nH]c6N)C(C)(C)C5CC[C@]43C)C2C1 (stereo partly drawn) [Compound 50, (4aS,6aS,6bR,13aR)-12-Amino-2,2,6a,6b,9,9,13a-heptamethyl-15-(4-(piperazin-1-yl)phenyl)-2,3,4,4a,5,6,6a,6b,7,8,8a,9,11,13,13a,13b,14,15b-octadecahydro-1H-chryseno[1,2-f]indazole-4a-carboxylic acid] | 1 (≈ 1.53 µM) | 2 (≈ 3.06 µM) | – |
| CC1(C)CC[C@]2(C(=O)O)CC[C@]3(C)C(=C(c4ccc(N5CCOCC5)cc4)CC4[C@@]5(C)Cc6c(n[nH]c6N)C(C)(C)C5CC[C@]43C)C2C1 (stereo partly drawn) [Compound 51, (4aS,6aS,6bR,13aR)-12-Amino-2,2,6a,6b,9,9,13a-heptamethyl-15-(4-morpholinophenyl)-2,3,4,4a,5,6,6a,6b,7,8,8a,9,11,13,13a,13b,14,15b-octadecahydro-1H-chryseno[1,2-f]indazole-4a-carboxylic acid] | 2 (≈ 3.05 µM) | 0.5 (≈ 0.763 µM) | – |
| CC1(C)CC[C@]2(C(=O)O)CC[C@]3(C)C(=C(c4ccc(CN5CCOCC5)cc4)CC4[C@@]5(C)Cc6c(n[nH]c6N)C(C)(C)C5CC[C@]43C)C2C1 (stereo partly drawn) [Compound 52, (4aS,6aS,6bR,13aR)-12-Amino-2,2,6a,6b,9,9,13a-heptamethyl-15-(4-(morpholinomethyl)phenyl)-2,3,4,4a,5,6,6a,6b,7,8,8a,9,11,13,13a,13b,14,15b-octadecahydro-1H-chryseno[1,2-f]indazole-4a-carboxylic acid] | 2 (≈ 2.99 µM) | 1 (≈ 1.49 µM) | – |
| CN1CCN(c2ccc(C3=C4C5CC(C)(C)CC[C@]5(C(=O)O)CC[C@@]4(C)[C@]4(C)CCC5C(C)(C)c6n[nH]c(N)c6C[C@]5(C)C4C3)cc2)CC1 (stereo partly drawn) [Compound 53, (4aS,6aS,6bR,13aR)-12-Amino-2,2,6a,6b,9,9,13a-heptamethyl-15-(4-(4-methylpiperazin-1-yl)phenyl)-2,3,4,4a,5,6,6a,6b,7,8,8a,9,11,13,13a,13b,14,15b-octadecahydro-1H-chryseno[1,2-f]indazole-4a-carboxylic acid] | 2 (≈ 2.99 µM) | 0.5 (≈ 0.749 µM) | – |
| CC1(C)CC[C@]2(C(=O)O)CC[C@]3(C)C(=C(c4ccc(N5CCOCC5)nc4)CC4[C@@]5(C)Cc6c(n[nH]c6N)C(C)(C)[C@@H]5CC[C@]43C)[C@@H]2C1 (stereo partly drawn) [Compound 54, (4aS,6aS,6bR,8aR,13aR,15bS)-12-Amino-2,2,6a,6b,9,9,13a-heptamethyl-15-(6-morpholinopyridin-3-yl)-2,3,4,4a,5,6,6a,6b,7,8,8a,9,11,13,13a,13b,14,15b-octadecahydro-1H-chryseno[1,2-f]indazole-4a-carboxylic acid] | 2 (≈ 3.05 µM) | 1 (≈ 1.52 µM) | – |
| CC1(C)CC[C@]2(C(=O)O)CC[C@]3(C)C(=C(c4ccc(N5CCNCC5)nc4)CC4[C@@]5(C)Cc6c(n[nH]c6N)C(C)(C)C5CC[C@]43C)C2C1 (stereo partly drawn) [Compound 55, (4aS,6aS,6bR,13aR)-12-Amino-2,2,6a,6b,9,9,13a-heptamethyl-15-(6-(piperazin-1-yl)pyridin-3-yl)-2,3,4,4a,5,6,6a,6b,7,8,8a,9,11,13,13a,13b,14,15b-octadecahydro-1H-chryseno[1,2-f]indazole-4a-carboxylic acid] | 2 (≈ 3.05 µM) | > 1 | – |
| CN1CCN(c2ccc(C3=C4C5CC(C)(C)CC[C@]5(C(=O)O)CC[C@@]4(C)[C@]4(C)CCC5C(C)(C)c6n[nH]c(N)c6C[C@]5(C)C4C3)cn2)CC1 (stereo partly drawn) [Compound 56, (4aS,6aS,6bR,13aR)-12-Amino-2,2,6a,6b,9,9,13a-heptamethyl-15-(6-(4-methylpiperazin-1-yl)pyridin-3-yl)-2,3,4,4a,5,6,6a,6b,7,8,8a,9,11,13,13a,13b,14,15b-octadecahydro-1H-chryseno[1,2-f]indazole-4a-carboxylic acid] | 2 (≈ 2.99 µM) | 1 (≈ 1.49 µM) | – |
| CC1(C)CC[C@]2(C(=O)O)CC[C@]3(C)C(=C(c4ccc(N5CCC(N)CC5)nc4)CC4[C@@]5(C)Cc6c(n[nH]c6N)C(C)(C)C5CC[C@]43C)C2C1 (stereo partly drawn) [Compound 57, (4aS,6aS,6bR,13aR)-12-Amino-15-(6-(4-aminopiperidin-1-yl)pyridin-3-yl)-2,2,6a,6b,9,9,13a-heptamethyl-2,3,4,4a,5,6,6a,6b,7,8,8a,9,11,13,13a,13b,14,15b-octadecahydro-1H-chryseno[1,2-f]indazole-4a-carboxylic acid] | 1 (≈ 1.49 µM) | > 2 | – |
| CC1(C)CC[C@]2(C(=O)O)CC[C@]3(C)C(=C(c4ccc(N5CCC(N)C5)nc4)CC4[C@@]5(C)Cc6c(n[nH]c6N)C(C)(C)C5CC[C@]43C)C2C1 (stereo partly drawn) [Compound 58, (4aS,6aS,6bR,13aR)-12-Amino-15-(6-(3-aminopyrrolidin-1-yl)pyridin-3-yl)-2,2,6a,6b,9,9,13a-heptamethyl-2,3,4,4a,5,6,6a,6b,7,8,8a,9,11,13,13a,13b,14,15b-octadecahydro-1H-chryseno[1,2-f]indazole-4a-carboxylic acid] | 2 (≈ 3.05 µM) | 1 (≈ 1.53 µM) | – |
| CC1(C)CC[C@]2(C(=O)O)CC[C@]3(C)C(=C(c4ccccc4CN4CCOCC4)CC4[C@@]5(C)Cc6c(n[nH]c6N)C(C)(C)[C@@H]5CC[C@]43C)[C@@H]2C1 (stereo partly drawn) [Compound 59, (4aS,6aS,6bR,8aR,13aR,15bS)-12-Amino-2,2,6a,6b,9,9,13a-heptamethyl-15-(2-(morpholinomethyl)phenyl)-2,3,4,4a,5,6,6a,6b,7,8,8a,9,11,13,13a,13b,14,15b-octadecahydro-1H-chryseno[1,2-f]indazole-4a-carboxylic acid] | > 1 | 0.5 (≈ 0.747 µM) | – |
| CC1(C)CC[C@]2(c3cc(N)[nH]n3)CC[C@]3(C)C(=CCC4[C@@]5(C)Cc6c(n[nH]c6N)C(C)(C)C5CC[C@]43C)C2C1 (stereo partly drawn) [Compound 60, (4aS,6aS,6bR,13aR)-4a-(5-Amino-1 H-pyrazol-3-yl)-2,2,6a,6b,9,9,13a-heptamethyl-2,3,4,4a,5,6,6a,6b,7,8,8a,9,11,13,13a,13b,14,15b-octadecahydro-1H-chryseno[1,2-f]indazol-12-amine] | – | – | IC85 (E. coli; Table 4, concentration that reduces the area of the spreading biofilm by >= 85%, read-out: E. coli): 1 µg/mL (≈ 1.88 µM); IC85 (P. aeruginosa; Table 4, concentration that reduces the area of the spreading biofilm by >= 85%, read-out: P. aeruginosa): 0.5 µg/mL (≈ 0.942 µM) |
| CC1(C)CC[C@]2(C(=O)Nc3nnn[nH]3)CC[C@]3(C)C(=CCC4[C@@]5(C)Cc6c(n[nH]c6N)C(C)(C)C5CC[C@]43C)C2C1 (stereo partly drawn) [Compound 61, (4aS,6aS,6bR,13aR)-12-Amino-2,2,6a,6b,9,9,13a-heptamethyl-N-(1H-tetrazol-5-yl)-2,3,4,4a,5,6,6a,6b,7,8,8a,9,11,13,13a,13b,14,15b-octadecahydro-1H-chryseno[1,2-f]indazole-4a-carboxamide] | – | – | IC85 (E. coli; read-out: E. coli (µg/ml)): 0.5 µg/mL (≈ 0.892 µM); IC85 (P. aeruginosa; read-out: P. aeruginosa (µg/ml)): 0.5 µg/mL (≈ 0.892 µM) |
